Source: a melting point compilation (Tetko et al.)

Compound | melting point
Cc1ccc(-c2nc(C)c(C(=O)O)s2)o1 | 215 to 217 °C
CC(=O)c1c[nH]c(C(=O)O)c1 | 201 to 203 °C
O=C(O)CCSc1ccc2c(c1)OCCO2 | 87 to 89 °C
O=C(O)c1cc(S(=O)(=O)N2CCCC2)ccc1Br | 216 to 218 °C
CC1Cc2ccc(Br)cc2C1=O (stereo unspecified) | 69 to 71 °C
CCOC(=O)c1c(-c2ccccc2)oc2ccc(O)cc12 | 152 to 154 °C
CCOC(=O)c1csc(-c2ccccn2)n1 | 67 to 69 °C
NC(=S)NC1CCOc2ccccc21 (stereo unspecified) | 178 to 180 °C
O=C(O)c1cc(Cl)c2ccccc2c1O | 228 to 230 °C
O=C(O)CNc1ccc(Cl)cc1 | 142 to 144 °C
CCN(C)S(=O)(=O)c1c(C)n[nH]c1C | 61 to 63 °C
NCc1ccnc(N)c1 | 92 to 94 °C
CCOC(=O)c1[nH]cnc1N | 129 to 131 °C
Cc1c(C(=O)O)oc2c(Br)cc(Cl)cc12 | 279 to 281 °C
O=C(CCl)N1CCOC1=O | 53 to 55 °C
Cc1ccc(NC(=O)C=NO)cc1 | 145 to 147 °C
CC(Oc1cccc(C(C)(C)C)c1)C(=O)O (stereo unspecified) | 67 to 69 °C
O=S(=O)(Cl)c1c(Cl)nc2ccccn12 | 101 to 103 °C
O=C(CNCc1cccnc1)Nc1ccc(Cl)cc1 | 81 to 83 °C
Cc1nscc1C(=O)O | 219 to 221 °C
CCOC(=O)Cc1csc(NC(=O)Cc2ccccc2)n1 | 92 to 94 °C
CC(=O)c1ccc(S(=O)(=O)CC(=O)O)cc1F | 149 to 151 °C
O=C(O)c1cc(S)ccc1[N+](=O)[O-] | 234 to 236 °C
CC(C)(C)CC(=O)NCC(=O)O | 106 to 108 °C
CNc1ncc(Br)cn1 | 116 to 118 °C

Compound | melting point
Cc1ccn2cc(C(=O)O)nc2c1 | 225 to 229 °C
Nc1nnc(CCc2ccccc2)c(=O)n1N | 243 to 245 °C
O=C1CCC(C(F)(F)F)=NN1 | 75 to 77 °C
O=C(O)c1cc(Cl)nc(N2CCOCC2)c1 | 222 to 224 °C
CSc1ccc(Cl)c(C(N)=O)c1 | 144 to 146 °C
CC1Sc2ccc(C(=O)O)cc2NC1=O (stereo unspecified) | 230 to 232 °C
Fc1ccc(-c2ccn[nH]2)cc1Cl | 109 to 111 °C
Cc1ccc(Oc2ccc(N)cn2)cc1C | 56 to 58 °C
Nc1ccc(N2CCc3ccccc32)cc1C(=O)O | 189 to 191 °C
CC(C)(C)n1ncc2c(=O)[nH]c(Cl)nc21 | 191 to 193 °C
Cn1c(S)nnc1N1CCOCC1 | 194 to 196 °C
CC(=O)N(C)c1ccc(S(=O)(=O)Cl)cc1 | 133 to 135 °C
CC1CC(C)(C)NC1=O (stereo unspecified) | 77 to 79 °C
N#Cc1ccccc1NCc1ccco1 | 60 to 62 °C
CC(C)(C)OC(=O)Nc1ccc(C(F)(F)F)cc1N | 140 to 142 °C
NC(C(=O)O)c1ccc(Br)cc1 (stereo unspecified) | 249 to 251 °C
COC(=O)c1c(NC(=O)CCl)sc2c1CCC2 | 98 to 100 °C
CC(Cl)C(=O)NC(=O)NC1CC1 (stereo unspecified) | 88 to 90 °C
NS(=O)(=O)CC1CCCN1 (stereo unspecified) | 72 to 74 °C
Cc1n[nH]c(C(=O)O)c1Br | 271 to 273 °C
Cn1c(=O)[nH]c2cnccc21 | 266 to 268 °C
CCCc1ncc(C(=O)O)s1 | 135 to 137 °C
CC(Cl)C(=O)Nc1nc2ccc(F)cc2s1 (stereo unspecified) | 126 to 128 °C
N#Cc1cc2c(nc1Cl)CCCC2 | 128 to 130 °C
Sc1nc2cc(Br)cnc2[nH]1 | 324 to 326 °C

Compound | melting point
O=C1c2ccccc2C(=O)N1CCCS(=O)(=O)Cl | 59 to 61 °C
O=C(O)c1ccc(OCc2ccccc2)nc1 | 168 to 170 °C
N#Cc1cc2c([nH]c1=O)CCC(c1ccccc1)C2 (stereo unspecified) | 279 to 281 °C
CC(=O)Nc1cccc(N2C(=O)C=CC2=O)c1 | 185 to 187 °C
COc1cc(CN2CCNCC2)cc(OC)c1OC | 102 to 104 °C
N#CC1(N2CCN(C(=O)CCl)CC2)CCCCC1 | 97 to 99 °C
O=C(O)c1cn(-c2ccccc2)nc1-c1ccc(-c2ccccc2)cc1 | 255 to 257 °C
N#Cc1cc2ccccn2c1 | 68 to 70 °C
O=C(O)CCNS(=O)(=O)C(F)(F)F | 87 to 89 °C
CC1=NN(c2ccc(C(=O)O)cc2)CC1 | 261 to 263 °C
Nc1ccc(-n2cncn2)nc1 | 188 to 190 °C
Nc1noc(COc2ccc(F)cc2)n1 | 154 to 156 °C
O=c1occc2cccnc12 | 157 to 159 °C
CCC(Br)C(=O)Nc1cc(C)on1 (stereo unspecified) | 103 to 105 °C
COCCNC(=O)C(C)Cl (stereo unspecified) | 28 to 30 °C
Cc1ccc(-c2ncco2)cc1N | 89 to 91 °C
CCOC(=O)c1cnc2c(C)cc(C)cc2c1Cl | 72 to 74 °C
Cc1c(C(=O)O)oc2c(Br)cccc12 | 204 to 206 °C
Nc1cccc2oc(C(F)(F)F)nc12 | 49 to 51 °C
CC(C)(C)OC(=O)NNC(=O)C(F)(F)F | 119 to 121 °C
COC(=O)CCCOc1ccccc1F | 29 to 31 °C
Clc1nc(-c2cccs2)nc2ccccc12 | 123 to 125 °C
C#CCNC(=O)Nc1cccc([N+](=O)[O-])c1 | 173 to 175 °C
CNC(C)c1ccc(-n2cnc3ccccc32)cc1 (stereo unspecified) | 62 to 64 °C
CC(=O)c1ccc(N2CCCS2(=O)=O)cc1 | 137 to 139 °C

Compound | melting point
Sc1ncccc1Br | 199 to 201 °C
NCCCN1CCCC(C(N)=O)C1 (stereo unspecified) | 71 to 73 °C
Cc1ccccc1Nc1nc2sc(C(=O)O)cc2s1 | 232 to 234 °C
O=C(O)CCS(=O)(=O)c1ccc(Cl)cc1 | 181 to 183 °C
CC1=NC2(CCCC2)C(=O)N1 | 66 to 68 °C
O=C(O)c1ccc(=O)n(-c2ccc(F)cc2)n1 | 239 to 241 °C
Cc1ccc(C(=O)c2c(N)sc3c2CCC3)cc1 | 153 to 157 °C
CC(C)(C)OC(=O)NC1CC1 | 62 to 64 °C
O=C(O)CCC(=O)N1CCN(S(=O)(=O)c2ccccc2)CC1 | 155 to 157 °C
CSc1nn(C)c(N)c1C#N | 123 to 125 °C
O=C(CCCl)Nc1ccc(S(=O)(=O)N2CCCC2)cc1 | 174 to 176 °C
Nc1nnc(Cc2cccc3ccccc23)o1 | 224 to 226 °C
CC(Cl)C(=O)Nc1cc([N+](=O)[O-])ccc1Cl (stereo unspecified) | 120 to 122 °C
C=CC(CC(=O)O)c1ccccc1 (stereo unspecified) | 39 to 41 °C
CN1CCN(C(=O)C2CNc3ccccc3O2)CC1 (stereo unspecified) | 132 to 134 °C
O=C(O)Cc1ccn(-c2ccc(F)cc2)n1 | 97 to 99 °C
Nc1ccc(OCCO)nc1 | 63 to 65 °C
CC(C)(C)C(=O)Cn1cc(C(=O)O)nn1 | 198 to 200 °C
Nc1ncn(Cc2ccc(Cl)cc2)n1 | 156 to 158 °C
CCC1(CO)CCNCC1 | 59 to 61 °C
O=C1c2ccccc2-c2n[nH]c3cccc1c23 | 236 to 238 °C
COC(=O)c1ccc(F)c(S(=O)(=O)Cl)c1 | 48 to 50 °C
O=C(O)C1CC(=O)N(c2cccc(C(F)(F)F)c2)C1 (stereo unspecified) | 102 to 104 °C
O=C(O)c1ccn(-c2ccccc2F)n1 | 122 to 124 °C
Cc1ccc(N)cc1C(=O)N(C)C | 114 to 116 °C

Compound | melting point
O=C(O)c1cc(-c2ccncc2)nc2ccc(Br)cc12 | 340 to 342 °C
O=C(O)c1ccc(OCC(F)F)nc1 | 158 to 160 °C
Cc1ccc2nc(-c3ccc(N=C=S)cc3)sc2c1 | 243 to 245 °C
O=C1CC(c2cccc(F)c2)CN1 (stereo unspecified) | 77 to 79 °C
O=C(O)Cc1cccc(OCc2cccc(Cl)c2)c1 | 94 to 96 °C
NNC(=O)CCN1CCN(c2ccccc2)CC1 | 120 to 122 °C
O=C(NCCCN1CCCC1)OCC(F)(F)F | 36 to 38 °C
CCS(=O)(=O)c1ccc(Br)cc1 | 53 to 55 °C
O=C(O)COc1ccc(C(=O)c2ccc(Cl)cc2)cc1 | 185 to 187 °C
Nc1nc(Br)ccc1O | 153 to 155 °C
O=C(O)C=Cc1cscn1 | 174 to 176 °C
Sc1nnc(-c2cccnc2)n1Cc1ccco1 | 117 to 119 °C
O=C(CO)N1CCc2ccccc21 | 147 to 149 °C
O=C(O)c1cc(O)nc2ccc(Br)cc12 | 355 to 357 °C
Nc1cc(C(F)(F)F)ccc1-n1cncn1 | 119 to 121 °C
CC1CCCC1(N)C(N)=O (stereo unspecified) | 64 to 66 °C
Clc1nc(-c2cccc(Oc3ccccc3)c2)no1 | 50 to 52 °C
CC(C)(C)OC(=O)NCc1ccc(C(=O)O)cc1 | 164 to 166 °C
COCCc1nc2cc(N)ccc2o1 | 44 to 46 °C
Cn1ccc2c1C(=O)NCC2 | 71 to 73 °C
Nc1ccc(-c2nc(C3CC3)n[nH]2)cc1 | 192 to 194 °C
Sc1nnc(N2CCCC2)s1 | 179 to 181 °C
Cc1cc2nc(Cl)c3ccccc3n2n1 | 138 to 140 °C
NC(=O)NCCCC(=O)O | 171 to 173 °C
COC(C)(C)C(N)=NO | 104 to 106 °C

Compound | melting point
C#CCN1CCCCC1C(=O)NC (stereo unspecified) | 116 to 118 °C
COc1ccc(C(C)=O)cc1CN1CCCCC1 | 54 to 56 °C
O=C1COc2c(Cl)cccc2N1 | 201 to 203 °C
Sc1nnc(-c2ccccc2Br)[nH]1 | 195 to 197 °C
CC(O)c1nc2ccccc2n1C (stereo unspecified) | 111 to 113 °C
CC(C)c1cc(N)n(-c2ncccn2)n1 | 146 to 148 °C
O=C(O)c1ccc(S(=O)(=O)Nc2ccccc2Oc2ccccc2)cc1 | 204 to 206 °C
O=C(CCc1ccccc1)c1ccccc1 | 69 to 71 °C
Cc1cc(C#N)ccc1NC1CCC(O)CC1 (stereo unspecified) | 119 to 121 °C
CC(C)(C)Sc1ccc(C(N)=S)cn1 | 178 to 180 °C
O=C1CCSc2c(F)ccc(F)c21 | 111 to 113 °C
Cc1cc([N+](=O)[O-])sc1Br | 37 to 39 °C
CC1(C)Cc2c(sc(N)c2C#N)C(C)(C)N1 | 197 to 199 °C
CC(C)c1ccc2cc(C(=O)O)[nH]c2c1 | 132 to 134 °C
O=C(CCl)Nc1ccc(F)c(F)c1 | 106 to 108 °C
Cc1cc(C(=O)NN)c(C)n1-c1ccc(F)cc1 | 160 to 162 °C
Cn1cc(SSc2cnn(C)c2)cn1 | 111 to 113 °C
CSc1nn(-c2ccccc2)c(N)c1C#N | 135 to 137 °C
Cc1cc(Cl)ccc1OCc1n[nH]c(-c2ccccn2)n1 | 174 to 176 °C
COc1cc(C(=O)O)cc(OC)c1OCC(N)=O | 249 to 253 °C
Cc1cc(N)n(-c2ccccc2C(F)(F)F)n1 | 102 to 104 °C
